US20130122085A1, “PHARMACEUTICAL COMPOSITIONS OF SELECTIVE ANDROGEN RECEPTOR MODULATORS AND METHODS OF USE THEREOF” (priority 2011, published 2013)

Experiments:
[1] = Exposure of S-I in female rats; assay type: in vivo, rat
Description: The exposure of S-I in female rats was AUCinf of 147,000 ng*hr/ml following a single 10 mg per kg IV dose. With the reasonable assumption that the SC Alzet pump dose was completely absorbed, a 0.13 mg per kg dose should result in an exposure of −1911 ng*hr/mL in rats. […] In other words, the 0.13 mg per kg per day Alzet dose in rats is equivalent to a 10 mg per day continuous release dose in humans, such as might be accomplished by a mechanical or osmotic pump, or transdermal patch, or the like.

[2] = tested on: ovariectomized female rats; assay: Delivery system study: lean body mass and serum HDL in OVX rats; assay type: in vivo, rat; conditions: 14 days, 0.13 mg/kg/day constant rate subcutaneous infusion (Alzet pump) vs daily subcutaneous injection
Description: Female rats were ovariectomized and randomized by body weight into groups of 10. Treatment groups included: (1) 3 mg/kg/day DHT administered daily via subcutaneous injection, (2) 0.13 mg/kg/day S-I administered daily via subcutaneous injection, and (3) 0.13 mg/kg/day S-I administered at a constant rate via subcutaneous infusion by an Alzet pump. Baseline measurements of fasting serum HDL as determined by enzymatic assay were performed via retroorbital blood draw for all animals. Baseline lean body mass (LBM) as determined by magnetic resonance was determined for all animals. After 14 days of treatment, changes from baseline in lean body mass (Δ LBM) and fasting serum HDL (Δ HDL) were determined and represented as a percentage of DHT treated animals.

[3] = Steady-state exposure in healthy young men (G100402, MAD); conditions: male, human, in vivo, 10 mg daily doses
patients with cancer = assay: Phase II double-blind, placebo-controlled study in cancer patients with weight loss; assay type: in vivo, human; conditions: 3 mg dose, 4 months
Description: A Phase II double-blind, placebo-controlled study was performed with patients with cancer that had experienced at least a 2% total body weight loss in the 6 months prior to the study. The subjects received S-I or matching placebo for 4 months. In this study, no exercise program was mandated and no diet control or monitoring was conducted. The primary endpoint of this study was total lean body mass. The key secondary endpoint of this study was physical function (stair climb speed and power).

## C[C@](O)(COc1ccc(C#N)cc1)C(=O)Nc1ccc(C#N)c(C(F)(F)F)c1 [Compound S-I, (S)—N-(4-cyano-3-(trifluoromethyl)phenyl)-3-(4-cyanophenoxy)-2-hydroxy-2-methylpropanamide]
[1]; rat, in vivo, 10 mg/kg, female rats, single 10 mg per kg IV dose
  AUC(0-inf): 147 µg·h/mL
[1]; rats, SC Alzet pump dose assumed completely absorbed, extrapolated from 10 mg per kg IV
  exposure expected at 0.13 mg per kg dose: -1911 ng·h/mL
[2]
  change from baseline in fasting serum HDL (Δ HDL): smaller decrease in serum HDL
  change from baseline in lean body mass (Δ LBM): larger increase in LBM than daily subcutaneous injections
[3]
  AUC(0-t): 1750 ng·h/mL
Patients with cancer; p=0.001 compared to baseline, p=0.058 compared to placebo
  power subjects were able to exert climbing 12 steps: statistically significant increase
Patients with cancer; p=0.007 compared to baseline, p=0.028 compared to placebo
  time it took the subjects to climb 12 steps: statistically significant decrease
Patients with cancer; p=0.015 compared to placebo, p=0.020 compared to baseline
  total lean body mass: statistically significant increase
